Data on 29 compounds can be found in patent US9321762B2, “Quinazoline compounds, method for preparing the same and use thereof” (DEVELOPMENT CENTER FOR BIOTECHNOLOGY, priority 2013, dated 2016).

Bounds are passed on as bounds.

As a reminder, the IC50 is the concentration that gives 50% inhibition.

The target of one experiment is T1, B-Raf kinase (Homo sapiens, UniProt P15056).
T1 construct: purchased Upstate Biotechnology
T1 sequence (P15056 whole entry): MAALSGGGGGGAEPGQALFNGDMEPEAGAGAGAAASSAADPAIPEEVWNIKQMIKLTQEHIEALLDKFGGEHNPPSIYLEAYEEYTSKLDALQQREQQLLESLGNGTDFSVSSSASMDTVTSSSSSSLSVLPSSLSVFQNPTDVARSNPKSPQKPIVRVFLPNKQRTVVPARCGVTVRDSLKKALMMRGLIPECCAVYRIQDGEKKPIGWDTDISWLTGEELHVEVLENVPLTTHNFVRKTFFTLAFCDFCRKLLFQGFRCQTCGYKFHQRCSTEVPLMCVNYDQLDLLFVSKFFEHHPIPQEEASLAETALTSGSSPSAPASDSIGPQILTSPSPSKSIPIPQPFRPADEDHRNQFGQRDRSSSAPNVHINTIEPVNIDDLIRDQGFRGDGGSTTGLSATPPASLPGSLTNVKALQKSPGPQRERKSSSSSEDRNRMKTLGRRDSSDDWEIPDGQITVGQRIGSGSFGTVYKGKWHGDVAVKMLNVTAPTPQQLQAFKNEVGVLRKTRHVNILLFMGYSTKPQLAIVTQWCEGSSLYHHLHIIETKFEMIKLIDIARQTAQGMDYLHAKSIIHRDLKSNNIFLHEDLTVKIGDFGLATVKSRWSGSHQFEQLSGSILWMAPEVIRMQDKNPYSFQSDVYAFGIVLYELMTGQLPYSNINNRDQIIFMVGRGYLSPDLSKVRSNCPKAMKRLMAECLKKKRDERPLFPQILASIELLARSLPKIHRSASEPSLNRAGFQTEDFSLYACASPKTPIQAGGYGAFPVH
Put plainly: B-Raf kinase assay ([33P] incorporation into MEK1(K97R)). The format is biochemical. Particulars: class symbols; 8 μM ATP; read-out: IC50 against B-Raf kinase. The protocol:
Inhibition of kinase activity by a test compound disclosed herein was estimated by quantifying the amount of [^33P] incorporation of a substrate in the presence of the test compound. Standard assay conditions were 5 ng of recombinant B-Raf kinase (Upstate Biotechnology) with 500 ng MEK1(K97R) in assay buffer (8 μM ATP, 0.5 μCi [^33P]ATP (specific activity 3000 Ci/mmol, PerkinElmer), 50 mM Tris/HCl (pH7.5), and 1 mM EGTA, 1 mM Na3VO4, 1% 2-mercaptoethanol, 0.1% Brij 35, and 0.2 mg/ml BSA) in a final volume of 25 μL. Reactions were incubated at 30° C. for 30 min and stopped by adding 3% phosphoric acid, harvested onto a 96-well GF/B UniFilter (PerkinElmer) using a unifilter harvester (PerkinElmer), and counted with a TopCount microplate scintillation counter (PerkinElmer). The IC50 values of inhibitors were determined after carrying out assays at 3-fold serially diluted concentrations of each compound in duplication. The results were analyzed using linear regression software (GraphPad Prism 4; GraphPad Software Inc.).
For the compound `CCCS(=O)(=O)Nc1c(F)ccc(Nc2ncnc3ccc(-c4ccncc4)cc23)c1F` [compound 17, N-(2,6-difluoro-3-(6-(pyridin-4-yl)quinazolin-4-ylamino)phenyl)propane-1-sulfonamide], the concentration for half-maximal inhibition (IC50) lay in the range of 1 to 10 µM.
Same read-out and setting: then `CCCS(=O)(=O)Nc1ccc(F)c(Nc2ncnc3ccc(-c4cccc(N)n4)cc23)c1F` [compound 61, N-(3-(6-(6-aminopyridin-2-yl)quinazolin-4-ylamino)-2,4-difluorophenyl)propane-1-sulfonamide], with 0.3 to 1 µM; and `CCCS(=O)(=O)Nc1ccc(F)c(Nc2ncnc3ccc(-c4cncc(C(F)(F)F)c4)cc23)c1F` [compound 65, N-(2,4-difluoro-3-(6-(5-(trifluoromethyl)pyridin-3-yl)quinazolin-4-ylamino)phenyl)propane-1-sulfonamide], with 0.3 to 1 µM.
Same read-out and setting: then `CCCS(=O)(=O)Nc1ccc(F)c(Nc2ncnc3cc(OC)c(-c4ccncc4)cc23)c1F` [compound 30, N-(2,4-difluoro-3-(7-methoxy-6-(pyridin-4-yl)quinazolin-4-ylamino)phenyl)propane-1-sulfonamide], with 1 to 10 µM; and `C#Cc1ccc2ncnc(Nc3c(F)ccc(NS(=O)(=O)CCC)c3F)c2c1` [compound 49, N-(3-(6-ethynylquinazolin-4-ylamino)-2,4-difluorophenyl)propane-1-sulfonamide], with 1 to 10 µM; and `CCCS(=O)(=O)Nc1ccc(F)c(Nc2ncnc3ccc(-c4ccc[nH]c4=O)cc23)c1F` [compound 26, N-(2,4-difluoro-3-(6-(2-oxo-1,2-dihydropyridin-3-yl)quinazolin-4-ylamino)phenyl)propane-1-sulfonamide], with 1 to 10 µM.
The same measure, in the same setting: in the case of `CCCS(=O)(=O)Nc1ccc(F)c(Nc2ncnc3ccc(-c4ccc(OCCOC)nc4)cc23)c1F` [compound 33, N-(2,4-difluoro-3-(6-(6-(2-methoxyethoxy)pyridin-3-yl)quinazolin-4-ylamino)phenyl)propane-1-sulfonamide] it was 0.3 to 1 µM.
`CCCS(=O)(=O)Nc1ccc(F)c(Nc2ncnc3ccc(-c4cnc(OC)c(N)c4)cc23)c1F` [compound 60, N-(3-(6-(5-amino-6-methoxypyridin-3-yl)quinazolin-4-ylamino)-2,4-difluorophenyl)propane-1-sulfonamide]: the IC50 is 0.3 to 1 µM.
Consider `CCCS(=O)(=O)Nc1ccc(F)c(Nc2ncnc3ccc(-c4cccnc4OC)cc23)c1F` [compound 23, N-(2,4-difluoro-3-(6-(2-methoxypyridin-3-yl)quinazolin-4-ylamino)phenyl)propane-1-sulfonamide], for which the IC50 lay in the range of 1 to 10 µM.
The same measure, in the same setting: in the case of `CCCS(=O)(=O)Nc1ccc(F)c(Oc2ncnc3ccc(-c4cccnc4F)cc23)c1F` [compound 34, N-(2,4-difluoro-3-(6-(2-fluoropyridin-3-yl)-quinazolin-4-yloxy)phenyl)propane-1-sulfonamide] it was 0.3 to 1 µM; in that of `CS(=O)(=O)Nc1ccc(F)c(Nc2ncnc3ccc(-c4cccnc4F)cc23)c1F` [compound 10, N-(2,4-difluoro-3-(6-(2-fluoropyridin-3-yl)quinazolin-4-ylamino)phenyl)methanesulfonamide], 1 to 10 µM.
The same measure, in the same setting: in the case of `CC(C)S(=O)(=O)Nc1ccc(F)c(Nc2ncnc3ccc(-c4cccnc4F)cc23)c1F` [compound 20, N-(2,4-difluoro-3-(6-(2-fluoropyridin-3-yl)quinazolin-4-ylamino)phenyl)propane-2-sulfonamide] it was 1 to 10 µM; in that of `CCCS(=O)(=O)Nc1ccc(F)c(Nc2ncnc3ccc(-c4cccnc4F)cc23)c1` [compound 6, N-(4-fluoro-3-(6-(2-fluoropyridin-3-yl)-quinazolin-4-ylamino)phenyl)propane-1-sulfonamide], 1 to 10 µM; in that of `CCCS(=O)(=O)Nc1ccc(F)c(Nc2ncnc3ccc(-c4cccnc4C#N)cc23)c1F` [compound 64, N-(3-(6-(2-cyanopyridin-3-yl)quinazolin-4-ylamino)-2,4-difluorophenyl)propane-1-sulfonamide], 0.3 to 1 µM.
As to `CCCS(=O)(=O)Nc1ccc(F)c(Nc2ncnc3ccc(-c4cccnc4F)c(F)c23)c1F` [compound 56, N-(2,4-difluoro-3-(5-fluoro-6-(2-fluoropyridin-3-yl)quinazolin-4-ylamino)phenyl)propane-1-sulfonamide], the 50% inhibitory concentration (IC50) fell in the range of 0.3 to 1 µM.
Still for that read-out and setting: in the case of `CCCS(=O)(=O)Nc1ccc(F)c(Nc2ncnc3ccc(-n4ccnc4)cc23)c1F` [compound 43, N-(3-(6-(1H-imidazol-1-yl)quinazolin-4-ylamino)-2,4-difluorophenyl)propane-1-sulfonamide] it was 1 to 10 µM; in that of `CCCS(=O)(=O)N(C)c1ccc(F)c(N(C)c2ncnc3ccc(-c4cccnc4F)cc23)c1F` [compound 53, N-(2,4-difluoro-3-((6-(2-fluoropyridin-3-yl)-quinazolin-4-yl)(methyl)amino)phenyl)-N-methylpropane-1-sulfonamide], 0.3 to 1 µM; in that of `CCCS(=O)(=O)Nc1ccc(F)c(Nc2ncnc3ccc(-c4cnc(N)c(C)c4)cc23)c1F` [compound 67, N-(3-(6-(6-amino-5-methylpyridin-3-yl)quinazolin-4-ylamino)-2,4-difluorophenyl)propane-1-sulfonamide], 0.3 to 1 µM.
In the case of `CCS(=O)(=O)Nc1ccc(F)c(Nc2ncnc3ccc(-c4cccnc4F)cc23)c1F` [compound 19, N-(2,4-difluoro-3-(6-(2-fluoropyridin-3-yl)quinazolin-4-ylamino)phenyl)ethanesulfonamide], the IC50 was 1 to 10 µM.
Still for that read-out and setting: in the case of `CCCS(=O)(=O)Nc1ccc(F)c(Nc2ncnc3ccc(-c4cccc(N5CCOCC5)n4)cc23)c1F` [compound 41, N-(2,4-difluoro-3-(6-(6-morpholinopyridin-2-yl)quinazolin-4-ylamino)phenyl)propane-1-sulfonamide] it was 0.3 to 1 µM.
For `CCCS(=O)(=O)Nc1ccc(F)c(Nc2ncnc3ccc(N4CCOCC4)cc23)c1F` [compound 42, N-(2,4-difluoro-3-(6-morpholinoquinazolin-4-ylamino)phenyl)propane-1-sulfonamide], the 50% inhibitory concentration (IC50) is 1 to 10 µM.

The experiment is the same for the next values; noted with them: given as bound; 8 μM ATP; read-out: IC50 against B-Raf kinase.
As to `CCCS(=O)(=O)Nc1ccc(F)c(Nc2ncnc3ccc(-c4c[nH]nn4)cc23)c1F` [compound 52, N-(3-(6-(1H-1,2,3-triazol-4-yl)quinazolin-4-ylamino)-2,4-difluorophenyl)propane-1-sulfonamide], the half-inhibitory concentration (IC50) is over 10 µM.
Same read-out and setting: in the case of `CCCS(=O)(=O)Nc1ccc(F)c(Nc2ncnc3ccc(-c4cccnc4)cc23)c1F` [compound 5, N-(2,4-difluoro-3-(6-(pyridin-3-yl)-quinazolin-4-ylamino)phenyl)propane-1-sulfonamide] it was over 10 µM; in that of `CCCS(=O)(=O)Nc1c(F)ccc(Nc2ncnc3ccc(-c4cccnc4F)cc23)c1F` [compound 16, N-(2,6-difluoro-3-(6-(2-fluoropyridin-3-yl)quinazolin-4-ylamino)phenyl)propane-1-sulfonamide], over 10 µM.
The same measure, in the same setting: then `CCCS(=O)(=O)Nc1ccc(F)c(Nc2ncnc3cc(NCCN(C)C)c(-c4ccncc4)cc23)c1F` [compound 22, N-(3-(7-(2-(dimethylamino)ethylamino)-6-(pyridin-4-yl)quinazolin-4-ylamino)-2,4-difluorophenyl)propane-1-sulfonamide], with over 10 µM; and `CCCS(=O)(=O)Nc1ccc(F)c(Nc2ncnc3ccc(-n4cnc5ccccc54)cc23)c1F` [compound 47, N-(3-(6-(1H-benzo[d]imidazol-1-yl)-quinazolin-4-ylamino)-2,4-difluorophenyl)propane-1-sulfonamide], with over 10 µM.
Same read-out and setting: then `CCCS(=O)(=O)Nc1cc(Nc2ncnc3ccc(-c4cccnc4F)cc23)c(F)cc1F` [compound 11, N-(2,4-difluoro-5-(6-(2-fluoropyridin-3-yl)-quinazolin-4-ylamino)phenyl)propane-1-sulfonamide], with over 10 µM.
Take `CCCS(=O)(=O)Oc1ccc(F)c(Nc2ncnc3ccc(-c4cccnc4F)cc23)c1F` [compound 40, 2,4-difluoro-3-(6-(2-fluoropyridin-3-yl)quinazolin-4-ylamino)phenyl propane-1-sulfonate]: the half-maximal inhibitory concentration (IC50) is over 10 µM.
The same measure, in the same setting: in the case of `O=S1(=O)CCCN1c1ccc(F)c(Nc2ncnc3ccc(-c4cccnc4F)cc23)c1F` [compound 55, N-(2,4-difluoro-3-(6-(2-fluoropyridin-3-yl)quinazolin-4-ylamino)phenyl)propanesultam] it was over 10 µM.
